PubChem BioAssay (NCI)
Several values for one entry are separate records, joined by “and”; a condition that tells them apart may be missing. Equal entries are not always repeated.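 Cultured in 96-well plates, cells were exposed to test compound for 48 hours across five concentrations. Abbreviation: GI50, concentration required for 50% inhibition of growth. TGI: concentration producing complete growth inhibition.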

Tests used:
Test in all cases: NCI anticancer screen, dose series, 48 h
[1] = tested on: SK-MEL-5 melanoma
[2] = tested on: UACC-257 melanoma
[3] = tested on: SW-620 colon
[4] = tested on: HOP-92 NSCLC
[5] = tested on: OVCAR-5 ovarian
[6] = tested on: 786-0 renal
[7] = tested on: HOP-62 NSCLC
[8] = tested on: OVCAR-4 ovarian
[9] = tested on: M14 melanoma
[10] = tested on: CAKI-1 renal

SMILES	TGI [1]	TGI [2]	TGI [3]	TGI [4]	TGI [5]	TGI [6]	TGI [7]	TGI [8]	TGI [9]	TGI [10]	GI50 [1]	GI50 [2]	GI50 [3]	GI50 [4]	GI50 [5]	GI50 [6]	GI50 [7]	GI50 [8]	GI50 [9]	GI50 [10]
c1c[nH]c(CN2CCN(Cc3ncc[nH]3)CC2)n1	> 100 µM	> 100 µM	> 100 µM	> 100 µM	> 100 µM	> 100 µM	> 100 µM	> 100 µM	> 100 µM	> 100 µM										
O=C(c1ccco1)c1c(C(F)(F)F)n([O-])c2cc(Cl)c(Cl)cc2[n+]1=O	1.45 µM	2.15 µM	2.48 µM	2.15 µM	1.76 µM	0.456 µM	1 µM	12.7 µM	1.46 µM	1.24 µM	0.727 µM	0.761 µM	0.873 µM	0.851 µM	0.935 µM	0.241 µM	0.316 µM	4.17 µM	0.715 µM	0.434 µM
Nc1nc(-c2ccccn2)c(-c2ccc3ncccc3n2)s1	> 25 µM	> 25 µM	> 25 µM	> 25 µM	> 25 µM	> 25 µM	> 25 µM	> 25 µM	> 25 µM	> 25 µM	> 25 µM	> 25 µM	> 25 µM	13.3 µM	> 25 µM	> 25 µM	> 25 µM	> 25 µM	> 25 µM	> 25 µM
NC1=Nc2cc(OCCCCN3Cc4ccccc4C3)c(OCC3CC3)cc2C12CCCC2	3.1 µM	3.48 µM	3.48 µM	2.71 µM	6.4 µM	3.03 µM	3.39 µM	14.7 µM	3.51 µM	6.5 µM	1.71 µM	1.62 µM	1.7 µM	0.873 µM	2.3 µM	1.54 µM	1.63 µM	3.11 µM	1.77 µM	2.1 µM
CCCCCCCCCCCCNC(=O)N[C@H](C(=O)N[C@H]1/C=C/OCCNC(=O)/C=C/[C@H](C(C)C)NC1=O)C(C)C	14.8 µM	> 93.7 µM		58.7 µM	> 92.7 µM	> 100 µM	34 µM	> 100 µM	> 70.3 µM	> 100 µM	2.03 µM	20 µM		5.14 µM	6.82 µM	40.1 µM	8.5 µM	3.61 µM	20.2 µM	> 100 µM
COC(=O)[C@@H](C)C[C@H](Cc1ccccc1)NC(=O)c1nc([C@@H](C[C@H](C(C)C)N(C)C(=O)[C@@H](NC(=O)[C@H]2CC(=O)CCN2C)C(C)C)OC(C)=O)sc1C(C)C	1.76 µM	> 16.7 µM	> 16.7 µM	> 16.7 µM	> 16.7 µM	8.82 µM	> 16.7 µM	> 16.7 µM	1.18 µM	> 16.7 µM	0.0869 µM	> 10.8 µM	0.141 µM	0.119 µM	0.617 µM	0.347 µM	0.694 µM	1.34 µM	0.217 µM	0.499 µM
O=c1c2cc(F)ccc2sc2c(NCCCNCCO)nc3ccc(F)cc3c12	3.15 µM	4.03 µM	3.48 µM	5.2 µM	3.04 µM	3.32 µM	3.53 µM	4.43 µM	3.67 µM	2.97 µM	1.7 µM	1.98 µM	1.73 µM	1.31 µM	1.62 µM	1.63 µM	1.61 µM	2.03 µM	1.85 µM	1.53 µM
CC(=O)NNc1nc(C)c(C(=O)NNC(=O)C(=O)Nc2ccc(C)cc2[N+](=O)[O-])s1	> 100 µM	> 100 µM	> 100 µM	> 100 µM	> 100 µM	> 100 µM	> 100 µM	> 100 µM	> 100 µM	> 100 µM										
O=C(/C=C/c1ccccc1)c1ccccn1	28.5 µM and 88.6 µM	26.9 µM and 32.3 µM	58.9 µM and > 100 µM	53 µM	29 µM and > 100 µM	24.7 µM and 40.9 µM	29.3 µM and > 100 µM	54.8 µM and 47.2 µM	29.9 µM	33.2 µM and 64.4 µM					11.5 µM and 24.2 µM		13.9 µM and 34.7 µM			
COc1cc(F)c(F)c(F)c1C(=O)c1cnc(NC2CCN(S(C)(=O)=O)CC2)nc1N	> 23.6 µM	14 µM	> 25 µM	7.11 µM	> 25 µM	> 21.5 µM	16.2 µM	> 25 µM	10.2 µM	10.8 µM	0.986 µM	3 µM	0.409 µM	0.41 µM	1.45 µM	1.64 µM	2.11 µM	3.29 µM	3.09 µM	0.843 µM
Nc1nc(N)c2nc(CNc3ccc(C(=O)NC(CCC(=O)O)C(=O)O)cc3)cnc2n1 (stereo not drawn)	> 100 µM	> 100 µM	> 100 µM	> 100 µM	> 100 µM	> 100 µM	> 100 µM	> 100 µM	> 100 µM	> 100 µM	0.0585 µM and 0.0309 µM	0.0942 µM and 0.0723 µM	< 0.01 µM	> 100 µM	0.0373 µM and 0.0307 µM	< 0.01 µM	0.0408 µM and < 0.01 µM		< 0.01 µM	< 0.01 µM
CC[C@@]12CC(C(=O)OC)=C3Nc4ccccc4[C@@]34CCN(C[C@H]3O[C@H]31)[C@@H]24	57.7 µM	> 100 µM	> 100 µM	> 100 µM	> 100 µM	> 100 µM	> 100 µM	> 100 µM	> 100 µM	> 100 µM	21.2 µM	66.7 µM	35.9 µM	17.7 µM	> 100 µM	> 100 µM	94.9 µM	82.5 µM	31.7 µM	36.9 µM
COC(=O)N1C=Cc2c(c(C)c3c([nH]c4ccccc43)c2C)C1C (stereo not drawn)	31.1 µM	35 µM	38.9 µM	36.5 µM	34.5 µM	26.5 µM	34.5 µM	26.1 µM	71.1 µM	34.5 µM										
COc1ccc2c(c1)OCC1c3cc(OC)ccc3OC21 (stereo not drawn)	86.1 µM	> 100 µM	> 100 µM	> 100 µM	> 100 µM	> 100 µM	> 100 µM	> 100 µM	> 100 µM	> 100 µM	28.4 µM	> 100 µM	> 100 µM	60.3 µM	80.1 µM	> 100 µM	95 µM	39.2 µM	39 µM	29.5 µM
CC(C)c1c(C(=O)Nc2ccccc2)c(-c2ccccc2)c(-c2ccc(F)cc2)n1CC[C@@H](O)C[C@@H](O)CC(=O)O	25.4 µM	> 100 µM	> 100 µM	2.14 µM	> 100 µM	> 81.2 µM	> 100 µM	> 100 µM	> 100 µM	32.8 µM	9.95 µM	41.5 µM	22.2 µM	0.211 µM	57.2 µM	22.3 µM	36 µM	27.8 µM	19.1 µM	11.9 µM
N#CC(NNC(=O)c1ccccc1O)c1ccccc1O (stereo not drawn)	42.3 µM	83 µM	> 100 µM	> 100 µM	> 100 µM	> 100 µM	> 100 µM	> 100 µM	29.7 µM	28.4 µM										
CC(C)OC(=O)OCOP(=O)(OCOC(=O)OC(C)C)C1CCCN(O)C1=O (stereo not drawn)	7.3 µM	> 100 µM	> 100 µM	7.91 µM	> 100 µM	> 100 µM	> 100 µM	> 100 µM	> 100 µM	> 100 µM	1.3 µM	49.1 µM	1.37 µM	0.566 µM	5.25 µM	0.407 µM	2.12 µM	2.32 µM	2.67 µM	3.55 µM
O=C(c1ccccc1)N1CCc2c([nH]c3ccccc23)C1	47.6 µM	95 µM	> 100 µM	> 100 µM	> 100 µM	> 100 µM	> 100 µM	> 100 µM	> 100 µM	86.4 µM										
CC(=O)Nc1ccc(S(=O)(=O)N2C(=O)CCC2C(=O)Nc2ccccc2)cc1 (stereo not drawn)	5.31 µM	17.2 µM	16.7 µM	5.41 µM	20.2 µM	13.3 µM	13.4 µM	10.8 µM	12.5 µM	17.5 µM	0.367 µM	1.34 µM	0.405 µM	1.48 µM	3.16 µM	1.42 µM	0.879 µM	0.698 µM	0.265 µM	0.46 µM
COc1cc(/C=C(\C#N)C(=O)c2ccccc2)cc(OC)c1OC	> 100 µM	> 100 µM	> 100 µM	> 100 µM	> 100 µM	> 100 µM	> 100 µM	> 100 µM	> 100 µM	> 100 µM										
COc1ncc(-c2ccc3nc(N)n(-c4ccccc4C(F)(F)F)c(=O)c3c2)cc1S(=O)(=O)Nc1ccc(F)cc1F	0.944 µM	24.5 µM	20 µM	94.5 µM	9.81 µM	83.7 µM	> 100 µM	> 100 µM	14.8 µM	> 100 µM	0.273 µM	7.81 µM	1.84 µM	0.432 µM	1.03 µM	3.16 µM	0.526 µM	3.64 µM	1.23 µM	0.122 µM
CCc1cccc(CC)c1NC1=CC(=O)C(=O)c2ccccc21	21.6 µM	28.6 µM	31.7 µM	29.6 µM	31 µM	44.9 µM	40.3 µM	27.8 µM	27.2 µM	44.3 µM										
CC(=O)[O-].O=C([CH-]C(=O)c1ccccc1)c1ccccc1.O=C([CH-]C(=O)c1ccccc1)c1ccccc1.[Dy+3]	20.9 µM	40.4 µM	> 100 µM	43.9 µM	> 100 µM	35.9 µM	31.9 µM	> 100 µM	36 µM	50.3 µM	6.5 µM	15.6 µM	7.27 µM	18.8 µM	34.9 µM	12 µM	6.91 µM	16.5 µM	15.9 µM	17 µM
FC(F)(F)c1ccc(-c2cnc(-c3nn[nH]n3)nc2NC2CCCCCC2)cc1	> 10 µM	> 10 µM	> 10 µM	> 10 µM	> 10 µM	> 10 µM	> 10 µM	> 10 µM	> 10 µM	> 10 µM	> 10 µM	> 10 µM	> 10 µM	> 10 µM	> 10 µM	> 10 µM	> 10 µM	> 10 µM	> 10 µM	> 10 µM
CC1(C)OC2OC(/C=C/[N+](=O)[O-])C3OC(C)(C)OC3C2O1 (stereo not drawn)	31.7 µM	20.7 µM	9.46 µM	19.6 µM	38.1 µM	27.7 µM	38.3 µM	30.9 µM	27.3 µM	14.3 µM										
C=C1C(=O)O[C@H]2[C@H]1CC/C(COC(=O)NCc1ccc(Cn3c(=O)sn(CCCI)c3=O)cc1)=C\CC[C@@]1(C)O[C@@H]21	3.55 µM	3.67 µM	3.17 µM	2.83 µM	4.17 µM	3.71 µM	27.4 µM	3.11 µM	4.69 µM	3.29 µM	1.91 µM	1.79 µM	1.4 µM	1.22 µM	1.85 µM	1.68 µM	13.5 µM	1.46 µM	1.74 µM	1.7 µM
O=C(NC(=Nc1ccccc1)SCCSC(=Nc1ccccc1)NC(=O)c1ccccc1)c1ccccc1	> 100 µM	> 100 µM	> 100 µM	58.7 µM	> 100 µM	> 100 µM	> 100 µM	> 100 µM	> 100 µM	> 100 µM										
C/C(=N\NC(N)=O)C(CN1CCOCC1)C(c1ccccc1)c1c(O)c2ccccc2oc1=O (stereo not drawn)	> 100 µM	> 100 µM	> 100 µM	> 100 µM	> 100 µM	> 100 µM		> 100 µM	> 100 µM	> 100 µM										
